From PubChem BioAssay (NCI)
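Assay format: 96-well plates, 48-hour exposure. GI50 marks 50% less growth. At the TGI there is no net growth.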

Key:
Experiment in all cases: NCI-60 cell line screen, 48 h
NCI-H23 lung = test system: NCI-H23 lung
TK-10 renal = test system: TK-10 renal
SNB-19 CNS = test system: SNB-19 CNS
NCI/ADR-RES ovarian = test system: NCI/ADR-RES ovarian
MCF7 breast = test system: MCF7 breast
SNB-75 CNS = test system: SNB-75 CNS
SF-295 CNS = test system: SF-295 CNS
T-47D breast = test system: T-47D breast
SF-268 CNS = test system: SF-268 CNS
ACHN renal = test system: ACHN renal
NCI-H522 lung = test system: NCI-H522 lung
SK-MEL-2 melanoma = test system: SK-MEL-2 melanoma
MALME-3M melanoma = test system: MALME-3M melanoma
IGROV1 ovarian = test system: IGROV1 ovarian
PC-3 prostate = test system: PC-3 prostate
COLO 205 colon = test system: COLO 205 colon
OVCAR-3 ovarian = test system: OVCAR-3 ovarian
CAKI-1 renal = test system: CAKI-1 renal
EKVX NSCLC = test system: EKVX NSCLC
RXF 393 renal = test system: RXF 393 renal
HT29 colon = test system: HT29 colon
SN12C renal = test system: SN12C renal
NCI-H460 lung = test system: NCI-H460 lung
MDA-MB-231 breast = test system: MDA-MB-231 breast
BT-549 breast = test system: BT-549 breast
HOP-92 NSCLC = test system: HOP-92 NSCLC
HCT-116 colon = test system: HCT-116 colon
UACC-257 melanoma = test system: UACC-257 melanoma
CCRF-CEM leukemia = test system: CCRF-CEM leukemia
MDA-MB-435 = test system: MDA-MB-435
SW-620 colon = test system: SW-620 colon
SK-MEL-5 melanoma = test system: SK-MEL-5 melanoma
UACC-62 melanoma = test system: UACC-62 melanoma
OVCAR-5 ovarian = test system: OVCAR-5 ovarian
A549 NSCLC = test system: A549 NSCLC
M14 melanoma = test system: M14 melanoma
A498 renal = test system: A498 renal
RPMI-8226 leukemia = test system: RPMI-8226 leukemia
SK-MEL-28 melanoma = test system: SK-MEL-28 melanoma
DU-145 prostate = test system: DU-145 prostate
NCI-H226 lung = test system: NCI-H226 lung
U251 CNS = test system: U251 CNS
OVCAR-4 ovarian = test system: OVCAR-4 ovarian
HCT-15 colon = test system: HCT-15 colon
OVCAR-8 ovarian = test system: OVCAR-8 ovarian
HCC-2998 colon = test system: HCC-2998 colon
UO-31 renal = test system: UO-31 renal
SK-OV-3 ovarian = test system: SK-OV-3 ovarian
HS 578T breast = test system: HS 578T breast
KM12 colon = test system: KM12 colon
LOX IMVI melanoma = test system: LOX IMVI melanoma
786-0 renal = test system: 786-0 renal
HOP-62 NSCLC = test system: HOP-62 NSCLC
MOLT-4 leukemia = test system: MOLT-4 leukemia
K-562 leukemia = test system: K-562 leukemia
SR leukemia = test system: SR leukemia
SF-539 CNS = test system: SF-539 CNS

## CC/C=C\C[C@H](O)C/C=C1/C(=O)C=C[C@@H]1C/C=C\CCCC(N)=O
NCI-H23 lung
  GI50: 2.13 µM
  TGI: 5.27 µM
TK-10 renal
  GI50: 3.16 µM
  TGI: 6.95 µM
SNB-19 CNS
  GI50: 7.43 µM
  TGI: 21.6 µM
NCI/ADR-RES ovarian
  GI50: 2.81 µM
  TGI: 12.3 µM
MCF7 breast
  GI50: 0.626 µM
  TGI: 11.7 µM
SNB-75 CNS
  GI50: 10.5 µM
  TGI: 22.3 µM
SF-295 CNS
  GI50: 2.52 µM
  TGI: 6.23 µM
T-47D breast
  GI50: 3.14 µM
  TGI: 15.3 µM
SF-268 CNS
  GI50: 2.96 µM
  TGI: 11.7 µM
ACHN renal
  GI50: 1.64 µM
  TGI: 3.35 µM
NCI-H522 lung
  GI50: 1.3 µM
  TGI: 2.67 µM
SK-MEL-2 melanoma
  GI50: 2.31 µM
  TGI: 5.69 µM
MALME-3M melanoma
  GI50: 2.06 µM
  TGI: 5.23 µM
IGROV1 ovarian
  GI50: 3.09 µM
  TGI: 12.2 µM
PC-3 prostate
  GI50: 2.15 µM
  TGI: 5.36 µM
COLO 205 colon
  GI50: 2.11 µM
  TGI: 4.72 µM
OVCAR-3 ovarian
  GI50: 1.26 µM
  TGI: 4.22 µM
CAKI-1 renal
  GI50: 1.62 µM
  TGI: 3.92 µM
EKVX NSCLC
  GI50: 4.29 µM
  TGI: 15.7 µM
RXF 393 renal
  GI50: 1.94 µM
  TGI: 3.69 µM
HT29 colon
  GI50: 1.89 µM
  TGI: 3.7 µM
SN12C renal
  GI50: 2.32 µM
  TGI: 6.43 µM
NCI-H460 lung
  GI50: 2.27 µM
  TGI: 6.97 µM
MDA-MB-231 breast
  GI50: 4.2 µM
  TGI: 15.2 µM
BT-549 breast
  GI50: 2.17 µM
  TGI: 5.54 µM
HOP-92 NSCLC
  GI50: 3.15 µM
  TGI: 6.74 µM
HCT-116 colon
  GI50: 1.02 µM
  TGI: 2.47 µM
UACC-257 melanoma
  GI50: 1.97 µM
  TGI: 5.3 µM
CCRF-CEM leukemia
  GI50: 1.38 µM
  TGI: 8.07 µM
MDA-MB-435
  GI50: 1.72 µM
  TGI: 5.24 µM
SW-620 colon
  GI50: 1.58 µM
  TGI: 5.33 µM
SK-MEL-5 melanoma
  GI50: 1.56 µM
  TGI: 2.97 µM
UACC-62 melanoma
  GI50: 1.36 µM
  TGI: 3.36 µM
OVCAR-5 ovarian
  GI50: 3.89 µM
  TGI: 11.8 µM
A549 NSCLC
  GI50: 2.49 µM
  TGI: 6.01 µM
M14 melanoma
  GI50: 2.31 µM
  TGI: 6.89 µM
A498 renal
  GI50: 2.9 µM
  TGI: 7.07 µM
RPMI-8226 leukemia
  GI50: 1.14 µM
  TGI: 5.24 µM
SK-MEL-28 melanoma
  GI50: 1.93 µM
  TGI: 4.26 µM
DU-145 prostate
  GI50: 2.5 µM
  TGI: 11 µM
NCI-H226 lung
  GI50: 2.34 µM
  TGI: 5.48 µM
U251 CNS
  GI50: 1.5 µM
  TGI: 4.12 µM
OVCAR-4 ovarian
  GI50: 3.45 µM
  TGI: 16.8 µM
HCT-15 colon
  GI50: 1.74 µM
  TGI: 5.69 µM
OVCAR-8 ovarian
  GI50: 3.03 µM
  TGI: 11.4 µM
HCC-2998 colon
  GI50: 1.98 µM
  TGI: 3.7 µM
UO-31 renal
  GI50: 1.63 µM
  TGI: 3.42 µM
SK-OV-3 ovarian
  GI50: 3.96 µM
  TGI: 12.8 µM
HS 578T breast
  GI50: 5.29 µM
  TGI: 32.4 µM
KM12 colon
  GI50: 1.68 µM
  TGI: 4.21 µM
LOX IMVI melanoma
  GI50: 0.35 µM
  TGI: 1.69 µM
786-0 renal
  GI50: 1.94 µM
  TGI: 3.62 µM
HOP-62 NSCLC
  GI50: 2.99 µM
  TGI: 7.77 µM

## C=C1C(O)C2C(=C(CC(C)C)C13CC3)C(=O)C(C)(C)C2OC (stereo not given)
NCI-H23 lung
  GI50: > 100 µM
  TGI: > 100 µM
TK-10 renal
  GI50: > 100 µM
  TGI: > 100 µM
SNB-19 CNS
  GI50: > 100 µM
  TGI: > 100 µM
NCI/ADR-RES ovarian
  GI50: > 100 µM
  TGI: > 100 µM
MCF7 breast
  GI50: > 100 µM
  TGI: > 100 µM
SF-295 CNS
  GI50: > 100 µM
  TGI: > 100 µM
T-47D breast
  GI50: > 100 µM
  TGI: > 100 µM
SF-268 CNS
  GI50: > 100 µM
  TGI: > 100 µM
MOLT-4 leukemia
  GI50: 24.2 µM
  TGI: 66.8 µM
ACHN renal
  GI50: > 100 µM
  TGI: > 100 µM
NCI-H522 lung
  GI50: > 100 µM
  TGI: > 100 µM
SK-MEL-2 melanoma
  GI50: > 100 µM
  TGI: > 100 µM
MALME-3M melanoma
  GI50: > 100 µM
  TGI: > 100 µM
PC-3 prostate
  GI50: > 100 µM
  TGI: > 100 µM
COLO 205 colon
  GI50: > 100 µM
  TGI: > 100 µM
OVCAR-3 ovarian
  GI50: > 100 µM
  TGI: > 100 µM
EKVX NSCLC
  GI50: > 100 µM
  TGI: > 100 µM
RXF 393 renal
  GI50: > 100 µM
  TGI: > 100 µM
HT29 colon
  GI50: > 100 µM
  TGI: > 100 µM
SN12C renal
  GI50: > 100 µM
  TGI: > 100 µM
NCI-H460 lung
  GI50: > 100 µM
  TGI: > 100 µM
K-562 leukemia
  GI50: 81.5 µM
  TGI: > 100 µM
MDA-MB-231 breast
  GI50: > 100 µM
  TGI: > 100 µM
BT-549 breast
  GI50: > 100 µM
  TGI: > 100 µM
HOP-92 NSCLC
  GI50: 97 µM
  TGI: > 100 µM
HCT-116 colon
  GI50: 81.5 µM
  TGI: > 100 µM
UACC-257 melanoma
  GI50: > 100 µM
  TGI: > 100 µM
CCRF-CEM leukemia
  GI50: 86.6 µM
  TGI: > 100 µM
MDA-MB-435
  GI50: > 100 µM
  TGI: > 100 µM
SW-620 colon
  GI50: > 100 µM
  TGI: > 100 µM
SK-MEL-5 melanoma
  GI50: > 100 µM
  TGI: > 100 µM
UACC-62 melanoma
  GI50: > 100 µM
  TGI: > 100 µM
OVCAR-5 ovarian
  GI50: > 100 µM
  TGI: > 100 µM
A549 NSCLC
  GI50: > 100 µM
  TGI: > 100 µM
M14 melanoma
  GI50: > 100 µM
  TGI: > 100 µM
A498 renal
  GI50: > 100 µM
  TGI: > 100 µM
RPMI-8226 leukemia
  GI50: 65.3 µM
  TGI: > 100 µM
SK-MEL-28 melanoma
  GI50: > 100 µM
  TGI: > 100 µM
SR leukemia
  GI50: 82.9 µM
  TGI: > 100 µM
DU-145 prostate
  GI50: > 100 µM
  TGI: > 100 µM
U251 CNS
  GI50: > 100 µM
  TGI: > 100 µM
OVCAR-4 ovarian
  GI50: > 100 µM
  TGI: > 100 µM
HCT-15 colon
  GI50: > 100 µM
  TGI: > 100 µM
OVCAR-8 ovarian
  GI50: > 100 µM
  TGI: > 100 µM
UO-31 renal
  GI50: > 100 µM
  TGI: > 100 µM
SK-OV-3 ovarian
  GI50: > 100 µM
  TGI: > 100 µM
SF-539 CNS
  GI50: > 100 µM
  TGI: > 100 µM
HS 578T breast
  GI50: > 100 µM
  TGI: > 100 µM
KM12 colon
  GI50: > 100 µM
  TGI: > 100 µM
LOX IMVI melanoma
  GI50: > 100 µM
  TGI: > 100 µM
786-0 renal
  GI50: > 100 µM
  TGI: > 100 µM
HOP-62 NSCLC
  GI50: > 100 µM
  TGI: > 100 µM
